The values that follow come from patent US20220145249A1, “A Method of Altering a Differentiation Status of a Cell” (Agency for Science, Technology and Research, priority 2019, published 2022).

Assay type in all cases: cell-based, human
Data set [1] deals with iPSC-CRISPR dCas9 SAM cells. Nature of the data set: minimum inhibitory concentration (MIC) assay for geneticin. The source says: The lentiviral vector backbone encodes geneticin as an antibiotic selection marker.
For data set [2], the system named is EPO. Nature of the data set: qPCR screening of EPO sgRNA lentiviruses. The conditions noted are these: day 4 after transduction, unconcentrated lentivirus supernatant. Here is the method:
cDNA was synthesized from 1 μg of RNA using the Maxima First Strand cDNA Synthesis Kit (ThermoFisher). Quantitative real-time polymerase chain reaction (qPCR) was carried out using QuantStudio 3 Real-Time PCR System (ThermoFisher). The samples were run in biological triplicates and expression levels normalized using the geometric mean of the “housekeeping” gene: glyceraldehyde phosphate dehydrogenase (GAPDH).
(§1) For this, four different sgRNAs were designed for each of the growth factors/cytokines and constructed lentiviral vectors as mentioned previously (Table 4). For testing the activity of EPO expression, the lentiviruses of four different sgRNAs were produced and screened for the best performing guide in activating EPO expression. The iPSC-CRISPR dCas9 SAM cells were transduced with the unconcentrated lentivirus supernatant of the four sgRNAs individually and tested for their EPO gene expression using qPCR analysis on day 4 cells after transduction. […] Further, the spent media of the cells were collected from two wells of a 12-well plate on days 3 and 4 transduced with EPO_g2 and was stored in −20° C. Next, an Amicon Ultra-15 centrifugal filter was used with 10KDa cut-off membrane (EPO molecular weight: 21 KDa) to concentrate the EPO protein and the retentate washed with 1× PBS was used for ELISA assay.

In data set [3] the test system is EPO. Nature of the data set: EPO ELISA of spent medium after endogenous EPO activation. The settings on record: iPSC-CRISPR dCas9 SAM cells, spent medium of days 3 and 4 pooled, concentrated with 10 KDa filter, retentate, commercial ELISA. Here is the method:
FIG. 14 Endogenous activation of erythropoietin (EPO) growth factor in human iPSC-dCas9 SAM cells. (a) qPCR data collected after 4 days of EPO sgRNAs lentivirus (unconcentrated) transduction. (b) EPO ELISA was carried out using two commercially available sources to quantify the CRISPRa EPO. For this, the spent mTesR medium of cells transduced with EPO_g2 were collected on days 3 and 4, the pooled medium was concentrated using Amicon Ultra-15 centrifugal filter (10 KDa cutoff membrane) since the EPO MW is 21 KDa. The retentate was used for quantification using ELISA. According to the standards, the EPO secreted in the medium is in the range of 47-51 IU/mL of EPO.
as §1, with “Next, an Amicon Ultra-15 centrifugal filter was used with 10KDa cut-off membrane (EPO molecular weight: 21 KDa) to concentrate the EPO protein and the retentate washed with 1× PBS was used for ELISA assay.” left out

`CN[C@@H]1[C@@H](O)[C@@H](O[C@@H]2[C@@H](O)[C@H](O[C@H]3O[C@H]([C@@H](C)O)[C@@H](O)[C@H](O)[C@H]3N)[C@@H](N)C[C@H]2N)OC[C@]1(C)O` [geneticin]: the MIC of geneticin in data set [1] stood at 100 µg/mL.

In the case of “EPO_g2: sgRNA for EPO, guide sequence TGTGCGTGAGGGGTCGCCAG (listed as DNA, chemistry not given here)”, the “EPO gene expression compared to non-transduced control cells” value with EPO [2] was “higher EPO gene expression”. Besides, the “EPO secreted in the medium” value in the data set with EPO [3] is given as 47-51 IU/mL.
